The structures appear in SMILES notation.

Chain of IDO1 (P14902 whole entry): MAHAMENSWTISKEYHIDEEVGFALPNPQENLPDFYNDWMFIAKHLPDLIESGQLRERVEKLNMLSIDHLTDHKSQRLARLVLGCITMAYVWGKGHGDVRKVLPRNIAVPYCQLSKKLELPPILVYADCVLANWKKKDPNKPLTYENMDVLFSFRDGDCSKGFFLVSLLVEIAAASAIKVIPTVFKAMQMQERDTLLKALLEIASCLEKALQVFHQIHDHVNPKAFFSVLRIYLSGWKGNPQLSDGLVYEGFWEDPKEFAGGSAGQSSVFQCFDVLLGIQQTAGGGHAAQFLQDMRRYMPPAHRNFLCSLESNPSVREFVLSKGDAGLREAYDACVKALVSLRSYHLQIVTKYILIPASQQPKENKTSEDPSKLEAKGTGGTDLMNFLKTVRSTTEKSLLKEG

The target of this assay is IDO1 (Homo sapiens, UniProt P14902). The experiment in a line: IDO1 Cellular Assay in Hela Cells Stimulated with IFNγ. The conditions noted are these: IFNγ 100 ng/mL, 300 uM L-tryptophan, about 48 hours, fluorescence readout, read-out: IDO1 HELA Cell Assay, IC50. The format is cell-based. The procedure:
Biological Assays IDO1 Cellular Assay in Hela Cells Stimulated with IFNγ
Hela cells were cultured in complete Hela culture medium ([…], 10% heat-inactivated fetal bovine serum) and expanded to about 1×10^9 cells. The cells were then collected and frozen down at 10×10^6 cells/vial in 1 mL frozen medium (90% complete Hela culture medium, 10% DMSO).
Compounds to be tested were serially diluted in ten 3-fold steps in DMSO starting from 10 mM DMSO stocks in Echo low volume plate(s). Compound dilutions or DMSO alone were then dispensed from the dilution plate(s) into Greiner black 384-well assay plate(s) (catalog #781086, 50 nL/well) using an Echo 550 acoustic liquid handler (Labcyte).
Frozen Hela cells were thawed and transferred into Hela assay medium (99% complete Hela culture medium, 1% Pen/Strep) with 20 mL medium/vial of cells. The cells were spun down at 250 g in a table top centrifuge for 5 min and suspended in same volume of Hela assay medium. […] Sterile L-tryptophan were added to the cells with final concentration of 300 uM L-tryptophan. A small aliquot (2 mL/plate) of Hela cells were set aside and were not treated with IFNγ, to serve as the Max-E control. The rest of Hela cells were added with sterile IFNγ (Cat #285-IF, R & D systems) with a final concentration of 100 ng/mL.
Hela cells with and without IFNγ were dispensed to the respective wells of 384-well assay plates containing the compounds. The plates were incubated for about 48 hours at a 37° C., 5% CO2 incubator. Afterwards, 12 μL of 0.5 M methyl isonipecotate in dimethyl sulfoxide were added into each well and the plates were sealed and incubated at 37° C. without CO2 overnight. The plates were centrifuged for 1 min at 200×g. The resulting fluorescence was measured in a Spectramax plate reader (Molecular Devices) with a 400 nm excitation filter and a 510 nm emission filter.
Potencies were calculated by […] least squares fit to the four parameter logistic IC50 equation.
In the case of `CC(C(=O)Nc1ccc(F)cc1)C12CC(NC(=O)c3cnc(Cl)cn3)(C1)C2` (stereo not shown) [Example 140, 5-chloro-N-[3-[2-(4-fluoroanilino)-1-methyl-2-oxo-ethyl]-1-bicyclo[1.1.1]pentanyl]pyrazine-2-carboxamide], the IC50 (commonly the concentration that inhibits the measured activity by half) amounted to 399 nM.
As for `CC(C(=O)Nc1ccc(Cl)c(F)c1)C12CC(NC(=O)c3cccc(Cl)c3)(C1)C2` (single isomer, unassigned) [Example 10, 3-chloro-N-(3-(1-((4-chloro-3-fluorophenyl)amino)-1-oxopropan-2-yl)bicyclo[1.1.1]pentan-1-yl)benzamide], the IC50 came out at 36.4 nM.
Turning to `Cc1cc(C(=O)NC23CC([C@H](C)C(=O)Nc4ccc(F)cc4)(C2)C3)ccc1Cl` [Example 50, 4-chloro-N-[3-[(1S)-2-(4-fluoroanilino)-1-methyl-2-oxo-ethyl]-1-bicyclo[1.1.l]pentanyl]-3-methyl-benzamide], the IC50 came to 3.29 nM.
As to `C[C@H](C(=O)Nc1ccc(F)cc1)C12CC(NC(=O)c3ccc(C#N)c(Cl)c3)(C1)C2` [Example 150, (S)-3-chloro-4-cyano-N-(3-(1-((4-fluorophenyl)amino)-1-oxopropan-2-yl)bicyclo[1.1.1]pentan-1-yl)benzamide], the IC50 was determined as 48.3 nM.
For `CC(C(=O)Nc1ccc(Cl)cc1)C12CC(NC(=O)c3cccc(C#N)c3)(C1)C2` (single isomer, unassigned) [Example 12, N-(3-(1-((4-chlorophenyl)amino)-1-oxopropan-2-yl)bicyclo[1.1.1]pentan-1-yl)-3-cyanobenzamide] the value was 97.9 nM; for `C[C@H](C(=O)Nc1ccc(F)cc1)C12CC(NC(=O)OC(C)(C)C)(C1)C2` (single isomer, unassigned) [Example 32], 115 nM.
`CC(C(=O)Nc1ccc(F)cc1)C12CC(NC(=O)c3cc(Cl)ccn3)(C1)C2` (stereo not shown) [Example 112, 4-chloro-N-[3-[2-(4-fluoroanilino)-1-methyl-2-oxo-ethyl]-1-bicyclo[1.1.1]pentanyl]pyridin-1-ium-2-carboxamide]: the IC50 amounted to 40.4 nM.
The value for `CC(C(=O)Nc1ccc(F)cc1)C12CC(NC(=O)c3cccc4ccnn34)(C1)C2` (stereo not shown) [Example 126, N-[3-[2-(4-fluoroanilino)-1-methyl-2-oxo-ethyl]-1-bicyclo[1.1.1]pentanyl]pyrazolo[1,5-a]pyridin-1-ium-7-carboxamide] was 180 nM.
In the case of `C[C@H](C(=O)Nc1ccc(F)cc1)C12CC(NC(=O)Nc3cccc4ccccc34)(C1)C2` [Example 86, (S)-N-(4-fluorophenyl)-2-(3-(3-(naphthalen-1-yl)ureido)bicyclo[1.1.1]pentan-1-yl)propanamide], the IC50 was found to be 84.8 nM.
For `C[C@H](C(=O)Nc1ccc(F)cc1)C12CC(NC(=O)c3cc(F)cc(Cl)c3)(C1)C2` [Example 55, 3-chloro-5-fluoro-N-[3-[(1S)-2-(4-fluoroanilino)-1-methyl-2-oxo-ethyl]-1-bicyclo[1.1.1]pentanyl]benzamide] the value was 152 nM; for `Cc1cc(C(=O)NC23CC([C@@H](C)C(=O)Nc4ccc(F)cc4)(C2)C3)ccc1F` [Example 39, 4-fluoro-N-[3-[(1R)-2-(4-fluoroanilino)-1-methyl-2-oxo-ethyl]-1-bicyclo[1.1.l]pentanyl]-3-methyl-benzamide], 201 nM.
On to `Cc1nc(C)c(C(=O)NC23CC(C(C)C(=O)Nc4ccc(F)cc4)(C2)C3)s1` (stereo not shown) [Example 136, N-[3-[2-(4-fluoroanilino)-1-methyl-2-oxo-ethyl]-1-bicyclo[1.1.1]pentanyl]-2,4-dimethyl-thiazole-5-carboxamide], for which the IC50 amounted to 318 nM.
The value for `C[C@H](C(=O)Nc1ccc(F)cc1)C12CC(NC(=O)Nc3ccc(F)c(Cl)c3)(C1)C2` [Example 83, (S)-2-(3-(3-(3-chloro-4-fluorophenyl)ureido)bicyclo [1.1.1]pentan-1-yl)-N-(4-fluorophenyl)propanamide] was 39 nM.

(Values after patent US11478461B2, “[1.1.1] bicyclo compounds as indoleamine 2,3-dioxygenase inhibitors” (Merck Sharp & Dohme Corp., priority 2018, dated 2022).)
